Experimental data taken from PMC4505863 (ACS Chemical Neuroscience, 2014).
Where two headings read alike, the source gives them in different places.

What was measured:
[1] = target: T1, 5-HT2A receptor (Homo sapiens, UniProt P28223); assay: h5-HT2A affinity, antagonist radioligand [3H]ketanserin; type: binding
[2] = target: T1, 5-HT2A receptor; assay: h5-HT2A affinity, agonist radioligand [125I]DOI; type: binding
[3] = target: T2, human 5-HT2C receptor (Homo sapiens, UniProt P28335); assay: h5-HT2C affinity, antagonist radioligand [3H]mesulergine; type: binding
T2 sequence (P28335 33-458): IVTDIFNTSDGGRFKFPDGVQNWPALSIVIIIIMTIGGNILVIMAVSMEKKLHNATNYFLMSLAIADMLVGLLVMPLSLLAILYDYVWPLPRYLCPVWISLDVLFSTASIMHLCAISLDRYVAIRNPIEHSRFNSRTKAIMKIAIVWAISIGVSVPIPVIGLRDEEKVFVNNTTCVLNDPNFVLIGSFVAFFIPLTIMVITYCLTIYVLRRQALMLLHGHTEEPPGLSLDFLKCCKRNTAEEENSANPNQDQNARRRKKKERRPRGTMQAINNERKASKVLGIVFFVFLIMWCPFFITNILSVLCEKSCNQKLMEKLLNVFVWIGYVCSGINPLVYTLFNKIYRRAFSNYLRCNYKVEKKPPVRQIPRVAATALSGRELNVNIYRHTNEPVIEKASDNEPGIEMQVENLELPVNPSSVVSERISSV

[4] = target: T2, human 5-HT2C receptor; assay: h5-HT2C affinity, agonist radioligand [125I]DOI; type: binding
[5] = target: 5-HT2B (Homo sapiens, UniProt P41595); assay: PDSP screening affinity 5-HT2B; type: binding
5-HT2B, sequence (P41595 whole entry): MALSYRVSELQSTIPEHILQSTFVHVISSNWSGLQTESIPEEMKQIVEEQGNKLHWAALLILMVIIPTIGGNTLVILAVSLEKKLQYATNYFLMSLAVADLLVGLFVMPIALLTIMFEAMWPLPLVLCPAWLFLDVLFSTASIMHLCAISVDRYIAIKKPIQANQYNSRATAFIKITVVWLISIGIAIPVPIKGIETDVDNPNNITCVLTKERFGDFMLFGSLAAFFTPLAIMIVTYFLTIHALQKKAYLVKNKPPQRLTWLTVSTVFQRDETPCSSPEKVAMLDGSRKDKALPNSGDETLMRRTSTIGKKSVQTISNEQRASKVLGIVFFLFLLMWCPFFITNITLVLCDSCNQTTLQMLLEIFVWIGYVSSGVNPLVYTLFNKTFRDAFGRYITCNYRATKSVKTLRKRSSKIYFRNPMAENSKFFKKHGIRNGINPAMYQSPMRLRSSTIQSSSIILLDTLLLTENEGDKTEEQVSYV

[6] = target: T3, 5-HT1A (Homo sapiens, UniProt P08908); assay: PDSP screening affinity 5-HT1A; type: binding
T3 sequence (P08908 1-422): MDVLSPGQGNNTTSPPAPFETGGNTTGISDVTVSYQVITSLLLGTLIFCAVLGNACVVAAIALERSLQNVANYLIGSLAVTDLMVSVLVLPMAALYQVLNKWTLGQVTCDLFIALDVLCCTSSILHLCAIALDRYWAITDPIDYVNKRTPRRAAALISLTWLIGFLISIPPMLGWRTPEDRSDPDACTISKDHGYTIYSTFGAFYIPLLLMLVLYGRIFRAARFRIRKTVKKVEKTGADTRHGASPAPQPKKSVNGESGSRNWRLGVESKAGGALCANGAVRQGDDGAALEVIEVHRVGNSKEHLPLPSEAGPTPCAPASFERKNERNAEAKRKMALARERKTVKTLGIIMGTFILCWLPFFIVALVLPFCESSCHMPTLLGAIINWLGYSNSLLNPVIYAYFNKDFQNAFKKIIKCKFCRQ

[7] = target: 5-HT1B (Homo sapiens, UniProt P28222); assay: PDSP screening affinity 5-HT1B; type: binding
5-HT1B, sequence (P28222 whole entry): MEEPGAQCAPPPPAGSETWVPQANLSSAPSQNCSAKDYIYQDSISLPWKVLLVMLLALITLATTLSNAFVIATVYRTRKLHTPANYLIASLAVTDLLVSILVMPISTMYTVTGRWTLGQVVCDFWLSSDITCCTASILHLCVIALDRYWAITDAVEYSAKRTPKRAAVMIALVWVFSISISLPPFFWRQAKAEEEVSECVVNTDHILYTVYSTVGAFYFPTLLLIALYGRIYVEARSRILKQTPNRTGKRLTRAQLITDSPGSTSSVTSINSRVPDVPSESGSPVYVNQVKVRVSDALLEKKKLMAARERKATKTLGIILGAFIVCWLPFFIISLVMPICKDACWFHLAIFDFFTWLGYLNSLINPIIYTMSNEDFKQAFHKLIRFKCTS

[8] = target: 5-HT1D (Homo sapiens, UniProt P28221); assay: PDSP screening affinity 5-HT1D; type: binding
5-HT1D, sequence (P28221 whole entry): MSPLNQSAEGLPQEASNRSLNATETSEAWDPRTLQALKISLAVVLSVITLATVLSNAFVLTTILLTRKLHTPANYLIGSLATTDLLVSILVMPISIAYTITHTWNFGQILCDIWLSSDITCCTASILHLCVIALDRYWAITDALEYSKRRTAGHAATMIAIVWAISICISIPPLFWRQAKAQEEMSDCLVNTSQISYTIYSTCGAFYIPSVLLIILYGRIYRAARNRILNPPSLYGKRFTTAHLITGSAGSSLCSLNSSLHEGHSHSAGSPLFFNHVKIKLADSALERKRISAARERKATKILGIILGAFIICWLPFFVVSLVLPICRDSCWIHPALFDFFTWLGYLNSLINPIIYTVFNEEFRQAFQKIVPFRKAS

[9] = target: 5-ht1e (Homo sapiens, UniProt P28566); assay: PDSP screening affinity 5-ht1e; type: binding
5-ht1e, sequence (P28566 whole entry): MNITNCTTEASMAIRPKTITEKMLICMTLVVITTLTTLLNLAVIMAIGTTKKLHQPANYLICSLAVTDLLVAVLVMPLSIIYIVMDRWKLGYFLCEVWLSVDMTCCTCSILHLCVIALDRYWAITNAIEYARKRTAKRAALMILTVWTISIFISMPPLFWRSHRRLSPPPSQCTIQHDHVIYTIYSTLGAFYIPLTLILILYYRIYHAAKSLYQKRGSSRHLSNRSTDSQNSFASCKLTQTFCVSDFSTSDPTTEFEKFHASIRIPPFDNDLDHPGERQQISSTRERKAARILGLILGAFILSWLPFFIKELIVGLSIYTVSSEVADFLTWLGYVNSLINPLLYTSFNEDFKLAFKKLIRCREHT

[10] = target: T4, 5-HT3 (Homo sapiens, UniProt P46098); assay: PDSP screening affinity 5-HT3; type: binding
T4 sequence (P46098 24-478): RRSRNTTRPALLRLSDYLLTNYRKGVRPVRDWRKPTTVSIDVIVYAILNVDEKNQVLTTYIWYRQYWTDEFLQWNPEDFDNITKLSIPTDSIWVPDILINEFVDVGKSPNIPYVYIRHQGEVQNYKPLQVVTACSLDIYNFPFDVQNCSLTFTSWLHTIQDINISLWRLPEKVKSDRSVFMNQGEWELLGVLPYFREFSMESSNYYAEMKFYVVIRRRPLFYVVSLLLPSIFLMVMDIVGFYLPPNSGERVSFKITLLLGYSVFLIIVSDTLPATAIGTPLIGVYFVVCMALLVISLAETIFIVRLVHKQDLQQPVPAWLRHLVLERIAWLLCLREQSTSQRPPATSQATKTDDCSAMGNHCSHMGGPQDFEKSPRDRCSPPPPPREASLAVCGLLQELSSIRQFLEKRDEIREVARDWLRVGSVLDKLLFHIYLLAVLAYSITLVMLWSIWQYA

[11] = target: 5-ht5a (Homo sapiens, UniProt P47898); assay: PDSP screening affinity 5-ht5a; type: binding
5-ht5a, sequence (P47898 whole entry): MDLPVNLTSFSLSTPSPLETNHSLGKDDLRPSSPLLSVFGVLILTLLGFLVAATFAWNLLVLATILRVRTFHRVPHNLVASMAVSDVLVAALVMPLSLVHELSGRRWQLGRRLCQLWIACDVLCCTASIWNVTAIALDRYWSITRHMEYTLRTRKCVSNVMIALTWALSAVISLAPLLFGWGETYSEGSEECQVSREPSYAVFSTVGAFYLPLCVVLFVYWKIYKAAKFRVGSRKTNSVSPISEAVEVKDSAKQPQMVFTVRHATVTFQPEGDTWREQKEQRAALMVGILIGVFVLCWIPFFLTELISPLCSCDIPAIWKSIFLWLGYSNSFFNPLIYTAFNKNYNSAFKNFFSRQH

[12] = target: 5-HT6 (Homo sapiens, UniProt P50406); assay: PDSP screening affinity 5-HT6; type: binding
5-HT6, sequence (P50406 whole entry): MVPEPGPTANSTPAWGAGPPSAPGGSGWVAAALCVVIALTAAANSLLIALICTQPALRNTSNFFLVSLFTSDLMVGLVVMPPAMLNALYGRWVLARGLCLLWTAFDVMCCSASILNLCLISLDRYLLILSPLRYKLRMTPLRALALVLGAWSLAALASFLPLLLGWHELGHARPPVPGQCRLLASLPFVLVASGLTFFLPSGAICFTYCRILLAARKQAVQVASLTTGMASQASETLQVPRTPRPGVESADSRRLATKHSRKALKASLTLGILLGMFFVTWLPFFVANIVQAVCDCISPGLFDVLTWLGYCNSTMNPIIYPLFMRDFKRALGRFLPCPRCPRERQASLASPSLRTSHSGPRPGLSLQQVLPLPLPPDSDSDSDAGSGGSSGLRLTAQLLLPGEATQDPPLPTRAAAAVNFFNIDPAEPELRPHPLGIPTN

[13] = target: 5-HT7 (Homo sapiens, UniProt P34969); assay: PDSP screening affinity 5-HT7; type: binding
5-HT7, sequence (P34969 whole entry): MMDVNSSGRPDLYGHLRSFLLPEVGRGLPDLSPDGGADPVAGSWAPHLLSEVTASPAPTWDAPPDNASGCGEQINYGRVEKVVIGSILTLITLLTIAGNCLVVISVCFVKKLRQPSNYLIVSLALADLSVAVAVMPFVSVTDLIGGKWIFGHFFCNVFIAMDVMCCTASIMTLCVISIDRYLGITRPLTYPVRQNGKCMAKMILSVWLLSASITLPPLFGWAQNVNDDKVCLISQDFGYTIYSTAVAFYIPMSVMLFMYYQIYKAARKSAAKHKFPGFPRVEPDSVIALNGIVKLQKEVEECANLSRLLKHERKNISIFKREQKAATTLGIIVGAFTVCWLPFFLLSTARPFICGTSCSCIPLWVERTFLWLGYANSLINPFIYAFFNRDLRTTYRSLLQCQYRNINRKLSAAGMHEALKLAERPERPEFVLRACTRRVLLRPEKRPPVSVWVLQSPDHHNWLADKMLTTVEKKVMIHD

[14] = target: r5-HT2A (Rattus norvegicus, UniProt P14842); assay: Ca2+ mobilization assay; type: cell-based
r5-HT2A, sequence (P14842 whole entry): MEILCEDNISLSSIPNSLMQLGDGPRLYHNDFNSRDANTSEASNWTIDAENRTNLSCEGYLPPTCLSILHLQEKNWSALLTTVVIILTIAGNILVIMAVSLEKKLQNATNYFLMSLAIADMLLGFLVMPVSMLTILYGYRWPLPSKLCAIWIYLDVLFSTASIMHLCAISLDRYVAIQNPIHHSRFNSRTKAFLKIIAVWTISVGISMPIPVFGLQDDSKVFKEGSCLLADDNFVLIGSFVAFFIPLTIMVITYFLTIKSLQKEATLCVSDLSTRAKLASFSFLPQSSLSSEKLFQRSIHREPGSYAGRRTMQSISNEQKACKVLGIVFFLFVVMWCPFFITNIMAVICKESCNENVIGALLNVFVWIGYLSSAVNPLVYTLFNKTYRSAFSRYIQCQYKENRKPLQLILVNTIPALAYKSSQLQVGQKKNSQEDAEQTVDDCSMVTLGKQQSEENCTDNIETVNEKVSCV

[15] = target: h5-HT2A (Homo sapiens, UniProt P28223); assay: Ca2+ mobilization assay; type: cell-based
h5-HT2A, sequence (P28223 whole entry): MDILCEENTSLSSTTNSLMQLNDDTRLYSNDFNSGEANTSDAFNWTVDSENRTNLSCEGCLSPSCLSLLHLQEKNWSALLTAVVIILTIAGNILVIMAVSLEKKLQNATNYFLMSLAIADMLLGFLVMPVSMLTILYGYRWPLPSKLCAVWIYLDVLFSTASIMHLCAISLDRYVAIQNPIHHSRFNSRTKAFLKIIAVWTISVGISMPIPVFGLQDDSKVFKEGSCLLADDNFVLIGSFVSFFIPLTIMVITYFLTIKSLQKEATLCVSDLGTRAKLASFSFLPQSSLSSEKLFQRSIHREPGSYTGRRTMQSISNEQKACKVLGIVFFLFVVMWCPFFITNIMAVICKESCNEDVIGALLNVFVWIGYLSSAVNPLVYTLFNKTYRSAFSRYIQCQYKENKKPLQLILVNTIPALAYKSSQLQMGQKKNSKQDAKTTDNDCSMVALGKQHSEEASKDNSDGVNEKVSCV

[16] = target: h5-HT2B (Homo sapiens, UniProt P41595); assay: Ca2+ mobilization assay; type: cell-based
h5-HT2B, sequence (P41595 whole entry): as the sequence (P41595 whole entry) above

[17] = target: T5, r5-HT2C (Rattus norvegicus, UniProt P08909); assay: Ca2+ mobilization assay; type: cell-based
T5 sequence (P08909 33-460): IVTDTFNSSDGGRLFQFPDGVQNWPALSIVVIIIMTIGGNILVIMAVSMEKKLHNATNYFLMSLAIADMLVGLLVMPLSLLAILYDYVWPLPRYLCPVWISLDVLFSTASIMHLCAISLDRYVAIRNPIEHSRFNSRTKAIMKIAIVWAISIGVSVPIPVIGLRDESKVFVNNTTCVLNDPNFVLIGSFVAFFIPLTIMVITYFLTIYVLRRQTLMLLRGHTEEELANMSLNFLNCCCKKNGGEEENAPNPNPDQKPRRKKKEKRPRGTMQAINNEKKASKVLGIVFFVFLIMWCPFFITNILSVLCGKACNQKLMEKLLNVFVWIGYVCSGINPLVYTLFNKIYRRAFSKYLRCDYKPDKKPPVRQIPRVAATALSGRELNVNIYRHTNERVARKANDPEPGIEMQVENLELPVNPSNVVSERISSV

[18] = target: T6, h5-HT2C (Homo sapiens, UniProt P28335); assay: Ca2+ mobilization assay; type: cell-based
T6 sequence (P28335 33-458): T2 sequence (P28335 33-458)

[19] = system: Male C57BL/6J mice; assay: Mouse head twitch response
[20] = [125I]DOI, n = 3–5 displacement curves
[21] = percentage of the maximum response to 5-HT

T1 sequence (P28223 whole entry): as the sequence (P28223 whole entry) above

COc1cc(CCNCc2ccc(Br)cc2)c(OC)cc1I [Compound 4e, N-(4-Bromobenzyl)-2-(4-iodo-2,5-dimethoxyphenyl)ethan-1-amine]
Ki [1]: 52.5 nM
Ki [2]: 3.24 nM
Ki [3]: 45.7 nM
Ki [4]: 3.31 nM
Ki ([5]; 5-HT2B affinity): 68 nM
Ki ([6]; 5-HT1A affinity): 649 nM
Ki ([7]; 5-HT1B affinity): 5090 nM
Ki ([7]; 5-HT1B pKi ± SEM): 6030 nM
Ki [8]: 311 nM
Ki [9]: > 10000 nM
Ki [10]: 2460 nM
Ki ([11]; 5-ht5a affinity): 1850 nM
Ki ([12]; 5-HT6 affinity): 350 nM
Ki ([13]; 5-HT7 affinity): 641 nM
EC50 ([14]; r5-HT2A EC50, Ca2+ mobilization): 150 nM
Emax ([14]; read-out: r5-HT2A Emax, percentage of the maximum response to 5-HT): 67.3 ± 0.9%
EC50 [15]: 170 nM
Emax ([15]; HEK293, read-out: h5-HT2A Emax, percentage of the maximum response to 5-HT): 88 ± 1.4%
Emax ([16]; HEK293, read-out: h5-HT2B Emax): 90 ± 2%
EC50 ([16]; h5-HT2B EC50, Ca2+ mobilization): 610 nM
EC50 ([17]; r5-HT2C EC50, Ca2+ mobilization): 290 nM
Emax ([17]; read-out: r5-HT2C Emax): 105 ± 2%
Emax ([18]; HEK293, read-out: h5HT2C Emax): 77 ± 5%
EC50 ([18]; h5HT2C EC50, Ca2+ mobilization): 200 nM
EC50 ([18]; h5HT2C pEC50 ± SEM, Ca2+ mobilization): 219 nM
activity in the HTR assay (active / inactive) ([19]; SC, doses up to 30 mg/kg): None of the phenethylamines or tryptamines with 4-substituted N-benzyl groups, 4b, 4e, 5c, or 5f, was active

COc1ccc2[nH]cc(CCNCc3cccc(C)c3)c2c1 [Compound 5j, N-(3-Methylbenzyl)-2-(5-methoxy-1H-indol-3-yl)ethan-1-amine]
h5-HT2A pKi ± SEM ([1]; [3H]ketanserin, n = 3–5 displacement curves): 8.32 ± 0.17
Ki ([1]; read-out: h5-HT2A Ki, [3H]ketanserin): 4.79 nM
h5-HT2A pKi ± SEM [2, 20]: 8.93 ± 0.11
selectivity h5-HT2A versus h5-HT2C, affinity at the [125I]-DOI-labeled receptors ([2]; agonist-labeled receptors): < 3 fold
Ki ([2]; read-out: h5-HT2A Ki, [125I]DOI): 1.17 nM
h5-HT2C pKi ± SEM ([3]; [3H]mesulergine, n = 3–5 displacement curves): 7.65 ± 0.03
Ki ([3]; read-out: h5-HT2C Ki, [3H]mesulergine): 22.4 nM
h5-HT2C pKi ± SEM [4, 20]: 8.47 ± 0.08
Ki ([4]; read-out: h5-HT2C Ki, [125I]DOI): 3.39 nM
5-HT2B pKi ± SEM [5]: 8.71 ± 0.03
Ki ([5]; read-out: 5-HT2B affinity): 1.9 nM
5-HT1A pKi ± SEM [6]: 6.57 ± 0.04
Ki ([6]; read-out: 5-HT1A affinity): 271 nM
5-HT1B pKi ± SEM [7]: 5.37 ± 0.07
Ki ([7]; read-out: 5-HT1B affinity): 4240 nM
5-HT1D pKi ± SEM ([8]; PDSP screening, human): 6.55 ± 0.06
Ki ([8]; read-out: 5-HT1D affinity, PDSP screening, human): 283 nM
5-ht1e pKi ± SEM ([9]; PDSP screening, human): 5.41 ± 0.05
Ki ([9]; read-out: 5-ht1e affinity, PDSP screening, human): 3880 nM
Ki ([10]; read-out: 5-HT3 affinity, PDSP screening, human): > 10000 nM
5-ht5a pKi ± SEM [11]: 5.41 ± 0.06
Ki ([11]; read-out: 5-ht5a affinity): 3850 nM
5-HT6 pKi ± SEM [12]: 7.21 ± 0.03
Ki ([12]; read-out: 5-HT6 affinity): 62 nM
5-HT7 pKi ± SEM [13]: 6.67 ± 0.05
Ki ([13]; read-out: 5-HT7 affinity): 212 nM
r5-HT2A pEC50 ± SEM ([14]; Ca2+ mobilization): 7.6 ± 0.04
r5-HT2A Emax [14, 21]: 56.2 ± 0.9%
EC50 ([14]; read-out: r5-HT2A EC50, Ca2+ mobilization): 26 nM
h5-HT2A pEC50 ± SEM ([15]; Ca2+ mobilization): 8.2 ± 0.04
selectivity in function h5-HT2A vs h5-HT2C ([15]; Ca2+ mobilization): 44 fold
h5-HT2A Emax [15, 21]: 73.3 ± 1.0%
EC50 ([15]; read-out: h5-HT2A EC50, Ca2+ mobilization): 6.5 nM
h5-HT2B pEC50 ± SEM ([16]; Ca2+ mobilization, NA = not active, Emax ≤ 15%): NA ^b (NA, not active; Emax ≤ 15%)
r5-HT2C pEC50 ± SEM ([17]; Ca2+ mobilization): 6.72 ± 0.04
r5-HT2C Emax [17, 21]: 104 ± 2%
EC50 ([17]; read-out: r5-HT2C EC50, Ca2+ mobilization): 192 nM
h5HT2C pEC50 ± SEM ([18]; Ca2+ mobilization): 6.54 ± 0.10
h5HT2C Emax [18, 21]: 75 ± 4%
EC50 ([18]; read-out: h5HT2C EC50, Ca2+ mobilization): 289 nM
max counts ([19]; HTR counts, SC): 14.6
active doses ([19]; SC, mouse head twitch): 10 mg/kg
magnitude of peak effect × vehicle ([19]; SC, mouse head twitch): 3.5 × vehicle
maximally effective dose ([19]; SC, mouse head twitch): 10 mg/kg
HTR at 30 mg/kg ([19]; biphasic bell-shaped dose–response, 30 mg/kg SC): inactive
